# Measured values from patent US20230157350A1, “DELIVERY SYSTEMS AND METHODS OF MAKING THE SAME” (British American Tobacco (Investments) Limited, priority 2020, published 2023).
# What was measured:
# [1] = Smoking sensory evaluation of cigarettes by testers (1 to 10 scale, N=28); format: in vivo; conditions: smoked cigarette
# Protocol: Test cigarettes were produced using the following amounts of WS-3 applied to the aerosol-generating material in the tobacco rod in the form of a solution:
# Various cigarettes were prepared and smoked so that the (1) menthol-family flavor intensity; (2) cooling sensation; and (3) tobacco taste intensity could each be evaluated by testers on a 1 to 10 scale (N=28).
# [2] = Sniffing Analysis of uncombusted tobacco, Quantitative Descriptive Profiling (ISO 13299)
# Protocol: Further samples were analyzed using “Sniffing Analysis”, an applied sensory method for the assessment of characterizing flavors of standard products, by sniffing the tobacco itself, without combusting it, using a method as provided in the international standard ISO 13299. The data is set out in Tables 4 and 5, showing the results of Quantitative Descriptive Profiling (QDP), providing a score of between 0 and 5 for perception of the different tobacco typical and non-tobacco typical flavor notes
# A critical intensity of a Mean >1.0 is highlighted in bold in Tables 4 and 5. On the 0-5 category scale, none of the prototype cigarette of “W53” or “WS23” show any critical intensity above 1.0 for the Non-Tobacco Typical Flavor Notes (see Table 5).
# [3] = Smoking sensory evaluation of cigarettes by testers (1 to 10 scale, N=28); format: in vivo; conditions: 1 mg
# [4] = Stability and migration in the delivery system; format: physicochemical
# Excerpt: The menthol in a pack of mentholated cigarettes, for example, is contained by an outer plastic packaging film. Within this packaging film, the menthol migrates and equilibrates. However, once this outer packaging film is removed (upon opening the pack for the first time), the menthol will begin to be lost. This migration and loss of the volatile menthol needs to be factored in when deciding how much menthol to include in each delivery system and where to apply it. It also means that the menthol delivery may vary depending on where the menthol is located when the delivery system is used.
# This means that greater significance is attached to the amount of WS-3 incorporated into the delivery system, as well as where and how it is incorporated.
# In some embodiments, the cooling agent WS-3 is present in the aerosol-generating material. In some embodiments, the cooling agent WS-3 is applied to the aerosol-generating material. As the delivery system is used, the WS-3 is volatilized and is entrained in the aerosol flow through the delivery system. […] This is despite the high temperatures seen in the rods of aerosol-generating material in combustible aerosol provision system, such as cigarettes. This is also despite the relatively low volatility of the WS-3 compared to some cooling agents used in delivery systems, such as menthol.
# [5] = Solubility in solvents; format: physicochemical
compound,measurement,setting,value
CNC(=O)C(C)(C(C)C)C(C)C [WS-23],Menthol-Family Flavor Intensity,[1]; 1.0 mg cooling agent,2.2
same,Tobacco Taste Intensity,[1]; 1.0 mg cooling agent,3.9
same,Non-Tobacco Typical Flavor Note: Alcoholic,"[2]; 1 mg, score 0-5",.0
same,Non-Tobacco Typical Flavor Note: Cacao,"[2]; 1 mg, score 0-5",.1
same,Non-Tobacco Typical Flavor Note: Caramel,"[2]; 1 mg, score 0-5",.1
same,Non-Tobacco Typical Flavor Note: Citrus,"[2]; 1 mg, score 0-5",.2
same,Non-Tobacco Typical Flavor Note: Floral,"[2]; 1 mg, score 0-5",.1
same,Non-Tobacco Typical Flavor Note: Fruity,"[2]; 1 mg, score 0-5",.2
same,Non-Tobacco Typical Flavor Note: Honey,"[2]; 1 mg, score 0-5",.1
same,Non-Tobacco Typical Flavor Note: Licorice,"[2]; 1 mg, score 0-5",.0
same,Non-Tobacco Typical Flavor Note: Minty,"[2]; 1 mg, score 0-5",.7
same,Non-Tobacco Typical Flavor Note: Spicy,"[2]; 1 mg, score 0-5",.0
same,Non-Tobacco Typical Flavor Note: Vanilla,"[2]; 1 mg, score 0-5",.3
same,Tobacco Typical Flavor Note: Animalic,"[2]; 1 mg, score 0-5",0.1
same,Tobacco Typical Flavor Note: Black Tea,"[2]; 1 mg, score 0-5",0.1
same,Tobacco Typical Flavor Note: Earthy,"[2]; 1 mg, score 0-5",0.3
same,Tobacco Typical Flavor Note: Haylike,"[2]; 1 mg, score 0-5",0.9
same,Tobacco Typical Flavor Note: Roasted,"[2]; 1 mg, score 0-5",0.7
same,Tobacco Typical Flavor Note: Smoky,"[2]; 1 mg, score 0-5",0.1
same,Tobacco Typical Flavor Note: Tobacco,"[2]; 1 mg, score 0-5",3.5
same,Tobacco Typical Flavor Note: Woody,"[2]; 1 mg, score 0-5",1.0
same,Non-Tobacco Typical Flavor Note: Minty,"[2]; 1 mg, score 0-5, listed as WS23",0.7
same,Overall flavor conclusion of smoking and sniffing analysis,[3],"very low, but detectable minty/menthol flavor"
CC1CCC(C(C)C)C(O)C1 (stereo not drawn) [Menthol],Cooling Sensation,[1]; 1.5 mg menthol (low),4.8
same,Menthol-Family Flavor Intensity,[1]; 1.5 mg menthol (low),4.1
same,Tobacco Taste Intensity,[1]; 1.5 mg menthol (low),3.1
same,Cooling Sensation,[1]; 3.5 mg menthol (medium),7.6
same,Menthol-Family Flavor Intensity,[1]; 3.5 mg menthol (medium),7.0
same,Tobacco Taste Intensity,[1]; 3.5 mg menthol (medium),2.1
same,Cooling Sensation,[1]; 5.0 mg menthol (high),8.8
same,Menthol-Family Flavor Intensity,[1]; 5.0 mg menthol (high),8.0
same,Tobacco Taste Intensity,[1]; 5.0 mg menthol (high),1.4
same,Non-Tobacco Typical Flavor Note: Alcoholic,"[2]; 4 mg, score 0-5",.1
same,Non-Tobacco Typical Flavor Note: Cacao,"[2]; 4 mg, score 0-5",.0
same,Non-Tobacco Typical Flavor Note: Caramel,"[2]; 4 mg, score 0-5",.1
same,Non-Tobacco Typical Flavor Note: Citrus,"[2]; 4 mg, score 0-5",.0
same,Non-Tobacco Typical Flavor Note: Floral,"[2]; 4 mg, score 0-5",.0
same,Non-Tobacco Typical Flavor Note: Fruity,"[2]; 4 mg, score 0-5",.0
same,Non-Tobacco Typical Flavor Note: Honey,"[2]; 4 mg, score 0-5",.1
same,Non-Tobacco Typical Flavor Note: Licorice,"[2]; 4 mg, score 0-5",.0
same,Non-Tobacco Typical Flavor Note: Minty,"[2]; 4 mg, score 0-5",.9
same,Non-Tobacco Typical Flavor Note: Spicy,"[2]; 4 mg, score 0-5",.0
same,Non-Tobacco Typical Flavor Note: Vanilla,"[2]; 4 mg, score 0-5",.1
same,Tobacco Typical Flavor Note: Animalic,"[2]; 4 mg, score 0-5",0.0
same,Tobacco Typical Flavor Note: Black Tea,"[2]; 4 mg, score 0-5",0.0
same,Tobacco Typical Flavor Note: Earthy,"[2]; 4 mg, score 0-5",0.0
same,Tobacco Typical Flavor Note: Haylike,"[2]; 4 mg, score 0-5",0.0
same,Tobacco Typical Flavor Note: Roasted,"[2]; 4 mg, score 0-5",0.1
same,Tobacco Typical Flavor Note: Smoky,"[2]; 4 mg, score 0-5",0.0
same,Tobacco Typical Flavor Note: Tobacco,"[2]; 4 mg, score 0-5",0.6
same,Tobacco Typical Flavor Note: Woody,"[2]; 4 mg, score 0-5",0.1
same,Non-Tobacco Typical Flavor Note: Minty,"[2]; 4 mg, score 0-5, listed as menthol",4.9
same,Migration within the delivery system or packaging during storage,[4],highly volatile and migrates
"CCNC(=O)C1CC(C)CCC1C(C)C (stereo not drawn) [WS-3, N-ethyl-2-(isopropyl)-5-methylcyclohexane carboxamide]",Cooling Sensation,[1]; 1.0 mg cooling agent,significant higher than both control products
same,Non-Tobacco Typical Flavor Note: Alcoholic,"[2]; 1 mg, score 0-5",.0
same,Non-Tobacco Typical Flavor Note: Cacao,"[2]; 1 mg, score 0-5",.2
same,Non-Tobacco Typical Flavor Note: Caramel,"[2]; 1 mg, score 0-5",.1
same,Non-Tobacco Typical Flavor Note: Citrus,"[2]; 1 mg, score 0-5",.0
same,Non-Tobacco Typical Flavor Note: Floral,"[2]; 1 mg, score 0-5",.0
same,Non-Tobacco Typical Flavor Note: Fruity,"[2]; 1 mg, score 0-5",.1
same,Non-Tobacco Typical Flavor Note: Honey,"[2]; 1 mg, score 0-5",.1
same,Non-Tobacco Typical Flavor Note: Licorice,"[2]; 1 mg, score 0-5",.0
same,Non-Tobacco Typical Flavor Note: Minty,"[2]; 1 mg, score 0-5",.0
same,Non-Tobacco Typical Flavor Note: Spicy,"[2]; 1 mg, score 0-5",.1
same,Non-Tobacco Typical Flavor Note: Vanilla,"[2]; 1 mg, score 0-5",.3
same,Tobacco Typical Flavor Note: Animalic,"[2]; 1 mg, score 0-5",0.1
same,Tobacco Typical Flavor Note: Black Tea,"[2]; 1 mg, score 0-5",0.0
same,Tobacco Typical Flavor Note: Earthy,"[2]; 1 mg, score 0-5",0.3
same,Tobacco Typical Flavor Note: Haylike,"[2]; 1 mg, score 0-5",1.1
same,Tobacco Typical Flavor Note: Roasted,"[2]; 1 mg, score 0-5",0.7
same,Tobacco Typical Flavor Note: Smoky,"[2]; 1 mg, score 0-5",0.0
same,Tobacco Typical Flavor Note: Tobacco,"[2]; 1 mg, score 0-5",3.9
same,Tobacco Typical Flavor Note: Woody,"[2]; 1 mg, score 0-5",1.3
same,Solubility in solvents versus humectants,[5]; alcohol or DMSO versus propylene glycol,higher in the solvents than in humectants such as propylene glycol
same,Solubility,"[5]; alcohol, such as ethanol, and DMSO",readily soluble
same,Stability in the aerosol,[4]; high temperatures in rods of combustible aerosol provision systems,stable molecule and is not transformed and does not react with other chemicals in the aerosol
same,Migration within the delivery system or packaging during storage,[4],does not migrate
same,Overall flavor conclusion of smoking and sniffing analysis,[3],provides a cooling sensation without menthol flavor
